Assay results reported in the supplement of paper PMC10627819.

Experiments:
B. subtilis 168 [1] = assay: Bliss interaction score (quartile over a dose matrix) (fitness difference); higher = more antagonism (negative = synergy)
How it was run: (§1)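 Fitness here means normalised growth, inferred for single drugs from the combination data. Growth was OD595 at entry into stationary phase, divided by the plate's robust no-drug mean and capped at 1. The Bliss score is observed minus expected fitness, with the expectation being the product, and its quartiles span technical, biological and donor/recipient replicates.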

S. pneumoniae D39V [2] = assay: as above
How it was run: as §1

S. aureus DSM 20231 = assay: as above
How it was run: as §1

S. aureus Newman = assay: as above
How it was run: as §1

B. subtilis 168 [3] = assay: fitness (endpoint OD595 vs no drug) (fraction); higher = more growth
How it was run: (§2)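 Background-subtracted growth curves were the basis for fitness, taken as the optical density at entry into stationary phase over the robust mean of no-drug control wells. A cap of 1 was applied. The curves came from OD595 readings every 30 min for 14 h at 37 °C, in 384-well plates seeded at OD595 0.01 with 30 µl, or 55 µl for S. pneumoniae.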

S. pneumoniae D39V [4] = assay: as above
How it was run: as §2
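Throughout, for Bliss interaction score (quartile over a dose matrix): first quartile when negative (synergy) and third quartile when positive (antagonism).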

CN(C)C(=O)C(CCN1CCC(O)(c2ccc(Cl)cc2)CC1)(c1ccccc1)c1ccccc1 [Loperamide] + COc1ccc(C[C@H](N)C(=O)N[C@H]2[C@@H](O)[C@H](n3cnc4c(N(C)C)ncnc43)O[C@@H]2CO)cc1 [Puromycin]
Conditions	Bliss interaction score
B. subtilis 168 [1]	-0.121
S. aureus DSM 20231	-0.192
S. aureus Newman	-0.0477
S. pneumoniae D39V [2]	0.0779

fitness
Conditions	partner 0.39 µg/mL	partner 0.78 µg/mL	partner 1 µg/mL	partner 1.56 µg/mL	partner 2 µg/mL	partner 4 µg/mL
B. subtilis 168 [3], first compound 25 µg/mL	0.82	0.767	–	0.718	–	–
B. subtilis 168 [3], first compound 50 µg/mL	0.0429	0.038	–	0.0393	–	–
B. subtilis 168 [3], first compound 100 µg/mL	0.0261	0.0107	–	0.0233	–	–
S. pneumoniae D39V [4], first compound 17.14 µg/mL	–	–	0.999	–	0.965	0.872
S. pneumoniae D39V [4], first compound 34.28 µg/mL	–	–	0.988	–	0.952	0.813

fitness, S. pneumoniae D39V [4], one replicate
Conditions	first compound 20 µg/mL	first compound 40 µg/mL	first compound 68.57 µg/mL	first compound 80 µg/mL
partner 1 µg/mL	0.951	0.899	0.997	0.159
partner 2 µg/mL	0.951	0.93	0.956	0.129
partner 4 µg/mL	0.835	0.828	0.908	0.0785

CN(C)C(=O)C(CCN1CCC(O)(c2ccc(Cl)cc2)CC1)(c1ccccc1)c1ccccc1 [Loperamide] + CN[C@@H]1[C@H](O)[C@H](NC)[C@H]2O[C@@]3(O)C(=O)C[C@@H](C)O[C@H]3O[C@@H]2[C@H]1O [Spectinomycin]
Conditions	Bliss interaction score
B. subtilis 168 [1]	0.354
S. aureus DSM 20231	0.104
S. aureus Newman	-0.103
S. pneumoniae D39V [2]	0.126

fitness
Conditions	partner 2 µg/mL	partner 4 µg/mL	partner 8 µg/mL	partner 16 µg/mL
B. subtilis 168 [3], first compound 25 µg/mL	0.812	0.78	0.566	–
S. pneumoniae D39V [4], first compound 17.14 µg/mL	–	0.983	0.974	0.93
S. pneumoniae D39V [4], first compound 34.28 µg/mL	–	0.994	0.909	0.929

fitness, S. pneumoniae D39V [4], one replicate
Conditions	first compound 20 µg/mL	first compound 40 µg/mL	first compound 68.57 µg/mL	first compound 80 µg/mL
partner 4 µg/mL	≥ 1	≥ 1	≥ 1	0.977
partner 8 µg/mL	≥ 1	≥ 1	≥ 1	0.966
partner 16 µg/mL	–	–	0.983	–

C[C@H]1COc2c(N3CCN(C)CC3)c(F)cc3c(=O)c(C(=O)O)cn1c23 [Levofloxacin] + CC1=C\[C@@H](O)CC(=O)Cc2nc(co2)C(=O)N2CCC=C2C(=O)O[C@H](C(C)C)[C@H](C)/C=C/C(=O)NC\C=C\1 [Virginiamycin M1]
Conditions	Bliss interaction score
B. subtilis 168 [1]	0.0195
S. aureus DSM 20231	-0.0827
S. aureus Newman	-0.0223
S. pneumoniae D39V [2]	0.0593

fitness, one replicate
Conditions	partner 0.0625 µg/mL	partner 0.125 µg/mL	partner 0.15 µg/mL	partner 0.25 µg/mL	partner 0.3 µg/mL	partner 0.5 µg/mL	partner 1 µg/mL
B. subtilis 168 [3], first compound 0.001 µg/mL	0.869	0.947	–	0.969	–	–	–
B. subtilis 168 [3], first compound 0.002 µg/mL	0.949	0.971	–	0.936	–	–	–
B. subtilis 168 [3], first compound 0.0039 µg/mL	0.887	0.918	–	0.904	–	–	–
S. pneumoniae D39V [4], first compound 0.2 µg/mL	–	–	0.954	–	0.876	0.925	0.937
S. pneumoniae D39V [4], first compound 0.4 µg/mL	–	–	0.921	–	0.913	0.834	0.832
S. pneumoniae D39V [4], first compound 0.8 µg/mL	–	–	0.829	–	0.797	0.539	0.391

Conditions	fitness
B. subtilis 168 [3], first compound 0.0312 µg/mL, partner 0.0625 µg/mL	0.0334
B. subtilis 168 [3], first compound 0.0312 µg/mL, partner 0.125 µg/mL	0.0383
B. subtilis 168 [3], first compound 0.0312 µg/mL, partner 0.25 µg/mL	0.0414
B. subtilis 168 [3], first compound 0.0625 µg/mL, partner 0.0625 µg/mL	0.0348
B. subtilis 168 [3], first compound 0.0625 µg/mL, partner 0.125 µg/mL	0.0328
B. subtilis 168 [3], first compound 0.0625 µg/mL, partner 0.25 µg/mL	0.0437
B. subtilis 168 [3], first compound 0.125 µg/mL, partner 0.0625 µg/mL	0.0353
B. subtilis 168 [3], first compound 0.125 µg/mL, partner 0.125 µg/mL	0.0443
B. subtilis 168 [3], first compound 0.125 µg/mL, partner 0.25 µg/mL	0.0489
S. pneumoniae D39V [4], first compound 0.1725 µg/mL, partner 0.5 µg/mL	0.998
S. pneumoniae D39V [4], first compound 0.1725 µg/mL, partner 1 µg/mL	0.992
S. pneumoniae D39V [4], first compound 0.1725 µg/mL, partner 2 µg/mL	0.969
S. pneumoniae D39V [4], first compound 0.2 µg/mL, partner 2 µg/mL	0.896
S. pneumoniae D39V [4], first compound 0.345 µg/mL, partner 0.5 µg/mL	0.92
S. pneumoniae D39V [4], first compound 0.345 µg/mL, partner 1 µg/mL	0.904
S. pneumoniae D39V [4], first compound 0.345 µg/mL, partner 2 µg/mL	0.9
S. pneumoniae D39V [4], first compound 0.4 µg/mL, partner 2 µg/mL	0.817
S. pneumoniae D39V [4], first compound 0.69 µg/mL, partner 0.5 µg/mL	0.539
S. pneumoniae D39V [4], first compound 0.69 µg/mL, partner 1 µg/mL	0.464
S. pneumoniae D39V [4], first compound 0.69 µg/mL, partner 2 µg/mL	0.458
S. pneumoniae D39V [4], first compound 0.8 µg/mL, partner 2 µg/mL	0.567

CCCCCCCCCC(=O)N[C@@H](Cc1c[nH]c2ccccc12)C(=O)N[C@H](CC(N)=O)C(=O)N[C@@H](CC(=O)O)C(=O)N[C@@H]1C(=O)NCC(=O)N[C@@H](CCCN)C(=O)N[C@@H](CC(=O)O)C(=O)N[C@H](C)C(=O)N[C@@H](CC(=O)O)C(=O)NCC(=O)N[C@H](CO)C(=O)N[C@@H]([C@H](C)CC(=O)O)C(=O)N[C@@H](CC(=O)c2ccccc2N)C(=O)O[C@@H]1C [Daptomycin] + C[C@H]1c2cccc(O)c2C(=O)C2=C(O)[C@]3(O)C(=O)C(C(N)=O)=C(O)[C@@H](N(C)C)[C@@H]3[C@@H](O)[C@@H]21 [Doxycycline]
Conditions	Bliss interaction score
B. subtilis 168 [1]	0.0559
S. aureus DSM 20231	0.0825
S. aureus Newman	0.0504
S. pneumoniae D39V [2]	-0.249

Conditions	fitness
B. subtilis 168 [3], first compound 0.125 µg/mL, partner 0.02 µg/mL	0.857
B. subtilis 168 [3], first compound 0.125 µg/mL, partner 0.04 µg/mL	0.794
B. subtilis 168 [3], first compound 0.125 µg/mL, partner 0.08 µg/mL	0.605
B. subtilis 168 [3], first compound 0.25 µg/mL, partner 0.02 µg/mL	0.871
B. subtilis 168 [3], first compound 0.25 µg/mL, partner 0.04 µg/mL	0.757
B. subtilis 168 [3], first compound 0.25 µg/mL, partner 0.08 µg/mL	0.595
B. subtilis 168 [3], first compound 0.5 µg/mL, partner 0.02 µg/mL	0.83
B. subtilis 168 [3], first compound 0.5 µg/mL, partner 0.04 µg/mL	0.771
S. pneumoniae D39V [4], first compound 1 µg/mL, partner 0.0155 µg/mL	0.733
S. pneumoniae D39V [4], first compound 2 µg/mL, partner 0.0155 µg/mL	0.738
S. pneumoniae D39V [4], first compound 4 µg/mL, partner 0.0155 µg/mL	0.795

fitness, one replicate
Conditions	first compound 1 µg/mL	first compound 2 µg/mL	first compound 4 µg/mL
B. subtilis 168 [3], partner 0.02 µg/mL	0.624	–	–
B. subtilis 168 [3], partner 0.04 µg/mL	0.641	–	–
B. subtilis 168 [3], partner 0.08 µg/mL	0.188	–	–
S. pneumoniae D39V [4], partner 0.003875 µg/mL	0.928	0.934	0.981
S. pneumoniae D39V [4], partner 0.00775 µg/mL	0.866	0.878	0.927
